These are literature values, as cited in patent US20250368755A1, “PEPTIDE THAT SP[…] TO PPC REGION OF SARS-COV-2 SPIKE PROTEIN AND COMPOSITION FOR […]-COV-2 INFECTION USING THE SAME” (priority 2024, published 2025).

In this series the target is S1/S2 region. The conditions noted are these: known value; read-out: binding affinity of furin for the cleavage of S1/S2 region; cited from earlier work.

Regarding furin, the Kd was 16 nM.
